Laboratory results taken from the NIST ThermoML archive (doi:10.1016/j.jct.2013.02.001).

Assay: molar heat capacity at constant pressure
Conditions: 101.33 kPa, Crystal 1, Quantum Design PPMS relaxation calorimeter

O=P([O-])([O-])OP(=O)([O-])[O-].[Fe+2].[Fe+2] [iron(II) pyrophosphate]
Conditions	molar heat capacity at constant pressure [J/K/mol]
60 K	43.45
65 K	48.17
66.33 K	49.51
70 K	52.96
73.67 K	56.22
75 K	57.77
80 K	62.51
81.81 K	63.97
85 K	67.27
90 K	72.12
90.85 K	72.47
95 K	76.73
100 K	81.13
100.84 K	81.1
110 K	89.39
110.99 K	89.55
120 K	97.12
120.88 K	97.62
130 K	104.5
131.05 K	105.42
140 K	111.61
141.03 K	112.91
150 K	118.53
151.17 K	119.77
160 K	125.27
161.25 K	126.73
170 K	131.84
171.3 K	133.11
180 K	138.23
181.45 K	139.41
190 K	144.41
191.55 K	145.2
200 K	150.38
201.65 K	151.21
210 K	156.13
211.78 K	157.08
220 K	161.63
221.88 K	161.91
230 K	166.89
232.02 K	167.23
240 K	171.91
242.09 K	171.91
250 K	176.68
252.14 K	177.54
260 K	181.21
262.21 K	182.5
270 K	185.5
272.36 K	187.75
273.15 K	186.8
280 K	189.56
282.44 K	193.26
290 K	193.4
292.45 K	194.84
298.15 K	196.38
300 K	197.04
302.52 K	200.88
